Laboratory results as given in patent publication US20080292699A1, “SOLID PHARMACEUTICAL DOSAGE UNIT FOR A[…] OF RHINORRHEA” (SOVEREIGN PHARMACEUTICALS, LTD., priority 2007, published 2008).
Structures can show the parent of a compound that is named as a salt.

Assay: Dissolution testing of the bi-layered tablet (USP I, baskets, 0.01 N HCl)
Format: physicochemical
Conditions: 500 mL 0.01 N HCl, 37° C., 100 rpm, average of six tablets
[1] = Time 2 hr, sustained release layer
[2] = Time 4 hr, sustained release layer
[3] = Time 8 hr, sustained release layer

Procedure: Place 500 mL (+/−5 mL) of 0.01 N HCl in each vessel of the dissolution apparatus (USP I, baskets). Allow media to equilibrate to 37° C.+/−0.5° C. […] Select 6 tablets at random and record weight of each tablet. […] Put one tablet into each basket. Turn dissolution apparatus on to a rate of 100 rpm. […] Withdraw samples through a 45 μm porous polyethylene filter disc (Whatman GE/X or Millipore Millex-GN) at 45 minutes, 2, 4 and 8 hours. […] Inject filtered samples into a gas chromatograph, injecting one standard (as used for calibration) after every six samples. Gas Chromatography: Instrument: Waters Alliance 2695 Separation Module Column: Waters μBondapak C18 Column, 10 μm, 3.9×300 mm; PN WAT027324 Column Temperature: 52° C. Flow Rate: 1.8 mL per minute Injection Volume: 200 μL Detector: UV at 257 nm Mobile Phase: A: Methanol • B: Pic-B8 (for every liter of Pic-B8 aqueous solution, dissolve 2.164 g of 1-octanesulfonic acid sodium salt in water and add 20 mL of glacial acetic acid) [table]

Compound	Average Amount Released [%] [1] [%]	Average Amount Released [%] [2] [%]	Average Amount Released [%] [3] [%]	Average Amount Released [%] (Time 45 min, immediate release layer)
CN(C)CCC(c1ccc(Cl)cc1)c1ccccn1 (stereo not shown) [CPM, Chlorpheniramine Maleate]	33.3	57.1	87.0	–
CNC[C@H](O)c1cccc(O)c1 [PEH, Phenylephrine HCl]	43.6	65.8	89.0	–
Methscopolamine Nitrate [MSPN]	–	–	–	100.2
